# Assay results from patent US12624017B2, “Salt form of isoquinolinone type compound as rock inhibitor and preparation method therefor” (GUANGZHOU OCUSUN OPHTHALMIC BIOTECHNOLOGY CO., LTD., priority 2020, dated 2026).
# Key:
# [1] = Hygroscopicity research by dynamic vapor sorption (DVS); type: physicochemical; conditions: 25° C. and 80% RH
# Protocol: Dynamic Vapor Sorption (DVS) Method
# Instrument model: SMS DVS intrinsic dynamic vapor sorption instrument
# A dynamic water sorption experiment consists of adsorption and desorption. It is generally believed that at a set relative humidity, the adsorption or desorption of the sample to moisture at this relative humidity is considered to have reached equilibrium when the sample weight reaches dm/dt≤0.01%.
# Sample testing temperature: T=25° C.
# Equilibrium time: dm/dt: 0.01%/min
# Relative humidity variation range: 0%-95%-0%; RH (%)
# Test humidity change at each step: 5%
# The evaluation of hygroscopicity is classified as follows:
# SMS DVS intrinsic dynamic vapor sorption instrument
# 10 to 15 mg of the crystal form B of the compound of formula (II) was put in a DVS sample tray for testing.
# [2] = Solid stability research (crystal form stability on storage); type: physicochemical; conditions: 40° C./75% RH 6 months; 25° C./60% RH 12 months
# Protocol: The crystal form B of the compound of formula (II) was placed at 40° C./75% RH (sealed with a double-layer LDPE bag and further heat-sealed with an aluminum foil bag) for 6 months, and placed at 25° C./60% RH (sealed with a double-layer LDPE bag and further heat-sealed with an aluminum foil bag) for 12 months, respectively. The crystal form was tested individually at each sampling point to determine the crystal form stability of the sample.
compound,measurement,setting,value
Cc1ccc(C(=O)OCn2cc(C)c3c(S(=O)(=O)N4CC[C@H](N)C4)cccc3c2=O)c(C)c1,Classification of hygroscopicity,[1],slightly hygroscopic
same,"ΔW, hygroscopic weight gain",[1]; DVS,0.736%
same,Stability in accelerated and long-term tests,[2],good stability
